{
  "source": "patent US12410124B2",
  "about": "(priority 2019, dated 2025)",
  "data": [
    {"system": "substantia nigra CD11b", "experiment": "Number of substantia nigra microglial cells with CD11b positive expression in MPTP Parkinson's disease model mouse (immunohistochemistry)", "type": "in vivo", "settings": "not given", "protocol": "(§1) Neurotoxins can be used to establish PD animal models. Currently, 1-methyl-4-phenyl-1,2,3,6-tetrahydropyridine (MPTP) is the sole synthetic toxin which is recognized to induce PD symptoms in human and non-human primates and in mice. Using MPTP subacute modeling method, C57BL/6J male mice were intraperitoneally injected with MPTP 30 mg/kg, once a day for 5 consecutive days. The experiment animals were divided into blank control group, MPTP model group, and compound treatment group. For the […] compound treatment group, the compound was administrated by gavage for 21 consecutive days after the completion of modeling; for the MPTP model group, the normal saline was administrated by gavage for 21 consecutive days after the completion of modeling; and for the blank control group, the normal saline was first intraperitoneally injected for 5 days, and then administrated by gavage for 21 days.\n(§2) Neuron-glial cell network homeostasis disorder is an important factor for the selective and progressive death of substantia nigra dopaminergic neurons in PD. In the neurotoxic effect of MPTP, the excessive activations of microglial cells and astrocytes produce a variety of inflammatory cytokines and reactive oxygen species (ROS). These inflammatory factors and ROS amplify their respective toxicities and mediate malignant feedback loop, causing a cascade inflammation response and aggravating the pathological process of PD. CD11b and GFAP are the marker proteins for activations of microglial cells and astrocytes, respectively. Therefore, the effect of the target compounds on the activations of the microglial cells and astrocytes in the substantia nigra, hippocampus, and midbrain areas of MPTP-induced PD mice can be investigated, to explore the mechanism of the anti-PD effect of the target compounds by inhibiting the neuroinflammation.\n(§3) Half of experiment mice in each group were taken to separate the midbrain after perfusion and fixation. The tissue was trimmed, and the substantia nigra area was taken to prepare paraffin sections. The CD11b immunohistochemical staining was performed for the statistics of the change in the number of microglial cells with CD11b positive expression. The experiment included blank control group, MPTP model group, positive control group (caffeic acid phenethyl ester, CAPE), prototype control group (styryl sulfone compounds 3B, 3C, 3D, and 3G, whose structures are shown as above), and target compound group.", "values": [
      {"smiles": "CCN(CC)C(=O)Oc1ccc(/C=C/S(=O)(=O)Cc2ccc(Cl)cc2)cc1OC(=O)N(CC)CC", "note": "[Compound D1-1, (E)-4-{2-[(4-chlorophenyl)mesyl]ethenyl}-1,2-phenylenebis(diethylcarbamate)]", "number of substantia nigra microglial cells with CD11b positive expression compared with the styryl sulfone prototype compounds": "significantly lower"}
    ]},
    {"system": "substantia nigra CD11b", "experiment": "Number of substantia nigra microglial cells with CD11b positive expression in MPTP Parkinson's disease model mouse (immunohistochemistry)", "type": "in vivo", "settings": "substantia nigra, MPTP Parkinson's disease model mouse, immunohistochemistry", "protocol": "as §1, §2, §3", "values": [
      {"smiles": "CCN(CC)C(=O)Oc1ccc(/C=C/S(=O)(=O)Cc2ccc(Cl)cc2)cc1OC(=O)N(CC)CC", "note": "[Compound D1-1, (E)-4-{2-[(4-chlorophenyl)mesyl]ethenyl}-1,2-phenylenebis(diethylcarbamate)]", "Positive cell number (microglial cells with CD11b positive expression)": "15 ± 3"},
      {"smiles": "CN(C)c1ccc(CC(=O)Oc2cc(/C=C/S(=O)(=O)C(Br)c3ccc(Cc4ccc(N(C)C)cc4)cc3)ccc2OC(=O)N2CCCC2C(F)(F)F)cc1", "note": "(stereo not drawn) [Compound M1-5]", "Positive cell number (microglial cells with CD11b positive expression)": "28 ± 3"},
      {"smiles": "CC(Br)C(Br)COc1cc(/C=C/S(=O)(=O)CCc2ccc(OCC(F)(F)F)cc2)ccc1OC(=O)Nc1ccsc1", "note": "(stereo not drawn) [Compound K1-3, (E)-2-(2,3-dibromobutoxy)-4-{2-[4-(2,2,2-trifluoroethoxy)phenylethylsulfonyl]ethenyl}phenyl-N-(thien-3-yl)carbamate]", "Positive cell number (microglial cells with CD11b positive expression)": "32 ± 4"},
      {"smiles": "Cc1ccc(N2CCN(C(=O)Oc3ccc(/C=C/S(=O)(=O)CCCC(c4ccc(OC(=O)CN(C)C)cc4)N(C)C)cc3OC(=O)N(C)c3ccccc3)CC2)cc1", "note": "(stereo not drawn) [Compound P1-1, (E)-4-{2-[4-(dimethylamino)-4-(4-(N,N-dimethylglycyloxy)phenyl)butylsulfonyl]ethenyl}-2-(N-methyl-N-phenylcarbamoyloxy)phenyl-4-(p-methylphenyl)piperazine-1-carboxylate]", "Positive cell number (microglial cells with CD11b positive expression)": "26 ± 3"},
      {"smiles": "O=C(NC(=O)C(F)(F)F)Oc1ccc(/C=C/S(=O)(=O)C(F)(F)c2ccc(Oc3ccccn3)cc2)cc1OC(=O)C(F)(F)C(F)(F)F", "note": "[Compound L1-4, (E)-5-{2-[(4-[pyridin-2-yl-oxy]phenyl)difluoromethylsulfonyl]ethenyl}-2-[N-(2,2,2-trifluoroacetyl)carbamoyloxy]phenyl-2,2,3,3,3-pentafluoropropionate]", "Positive cell number (microglial cells with CD11b positive expression)": "35 ± 2"}
    ]}
  ]
}
